Measurements as given in patent US20240252472A1, “COMBINATIONS FOR TREATING CANCER” (Purdue Pharma L.P., priority 2023, published 2024).

Key:
[1] = tested on: CD38 histone H3 acetylation; assay: ChIP-qPCR of CD38 histone H3 acetylation; format: cell-based, human; conditions: MM.1S (similar in RPMI-8226); 2.5 μM, 48 hours; vs DMSO
Description: Chromatin Immunoprecipitation RPMI-8226 and MM.1S cell lines were treated with DMSO or tinostamustine (2.5 μM) for 48 hours. Then, the cells were fixed with Pierce™ fresh methanol-free formaldehyde (ThermoFisher) for 15 minutes and prepared for sonication with the truChIP Chromatin Shearing Kit (Covaris, Woburn, MA, USA), following the manufacturer's instructions and as previously described (Garcia-Gomez et al., Nat Commun 12: 421, 2021).
For ChIP-qPCR, samples were diluted 1/10, and 4 μL and specific primers (Supplementary Table 1) were used for each reaction. RT-qPCR was performed in technical triplicates for each biological replicate, using LightCycler® 480 SYBR Green Mix (Roche). The relative amount of immunoprecipitated DNA was compared to the input DNA for each condition.

CD38 [2] = assay: CD38 expression by western blot in MM cell lines; format: cell-based, human
Description: Western Blot Analysis Cells were collected and centrifuged at 1200 rpm for 5 minutes at 4° C. Cells were washed with PBS and lysed in ice-cold lysis buffer [140 mmol/L NaCl, 10 mmol/L EDTA, 10% glycerol, 1% NP40, 20 mmol/L Tris (pH 7), 1 μMol/L pepstatin, 1 μg/mL aprotinin, 1 μg/mL leupeptin, 1 mmol/L sodium orthovanadate]. Samples were centrifuged at 10,000×g at 4° C. for 10 minutes, and supernatants were transferred to new tubes and western blots were performed following standard procedures. CD38 and anti-α-tubulin primary antibodies used in Western blot analyses were obtained from Cell Signaling (Boston, MA, USA). The horseradish peroxidase-conjugated secondary antibodies were from GE Healthcare (Chicago, IL, USA).

[3] = tested on: MM cell lines (MM.1S, RPMI-8226, MOLP-8); assay: NK-cell direct cytotoxicity on pre-treated MM cells; format: cell-based, human; conditions: pre-treatment 2.5 μM 48 hours, NK cells ratio 1:1, 4 hours, vs DMSO-pretreated
Description: (§1) ADCC, CDC and apoptosis via cross-linking To assess the effect of tinostamustine pre-treatment on cytotoxic mechanisms mediated by daratumumab, MM cell lines were first incubated in presence of tinostamustine (2.5 μM) or DMSO for 48 hours. Cells were then washed to remove tinostamustine or DMSO from the culture medium, and the corresponding cytotoxic assay (ADCC, CDC or apoptosis via cross-linking) was performed.
(§2) For the evaluation of ADCC, tinostamustine or DMSO pre-treated cells were cocultured with NK cells obtained from healthy donors in the presence of daratumumab (1 μg/ml) or the corresponding isotype control for 4 hours (ratio 1:1). Briefly, peripheral blood mononuclear cells (PBMCs) were isolated from healthy donor buffy coats by Lymphoprep density gradient centrifugation. […] In all three assays, the cytotoxic effect on MM cells was evaluated by flow cytometry with Annexin V/7AAD staining after treatment with daratumumab. […]
MM cells (MM1.S, RPMI-8226, MOLP-8 cells pre-treated with 0 or 2.5 μM EDO-S101 in accordance with the methods outlined above) were co-cultured with NK-cells (ratio 1:1), in the presence of daratumumab (1 μg/mL) or the corresponding isotype control, for 4 hours at 37° C. […] ADCC was then evaluated using flow cytometry in accordance with the methods outlined above, using the following panel: CD38me-FITC/AnnexinV-PE/7AAD/CD45-APC.

MOLP-8 cells = assay: Daratumumab-mediated complement-dependent cytotoxicity (CDC) on pre-treated MM cells; format: cell-based; conditions: MOLP-8 pre-treated 2.5 μM 48 hours; daratumumab 0.1 or 1 μg/mL, 10% human serum, 4 hours
Description: as §1, §2
MM cells (MOLP-8 pre-treated with 0 or 2.5 μM EDO-S101 for 48 hours in accordance with the methods outlined above) were incubated with 0.1 μg/mL daratumumab, 1 μg/ml daratumumab, or the corresponding isotype control, for 30 minutes at 37° C. […] The percentage of dead cells was then evaluated by flow cytometry in accordance with the methods outlined above, using AnnexinV/7AAD staining.

MICA mRNA = MICA mRNA by RT-qPCR in MM cell lines; format: cell-based, human; conditions: four MM cell lines tested; 1 and 2.5 μM, 36 hours (MOLP-8 6 hours)
Description: Real time quantitative PCR (RT-qPCR) Total RNA was isolated using the RNeasy Mini Kit (Qiagen, Hilden, Germany). Following reverse transcription, PCR was performed using TaqMan Gene Expression Assays (Applied Biosystems, Foster City, CA, USA): CD38 (Hs01120071_m1), MICA (Hs00741286_m1), MICB (Hs00792952_m1) and GAPDH (Hs99999905_m1). The results were expressed as fold change relative to expression of the target gene in control cells, using endogenous expression of GAPDH for normalization.

CD38 [4] = assay: CD38 expression by immunofluorescence in MM cell lines; format: cell-based, human; conditions: RPMI-8226, MOLP-8; 2.5 μM; relative to DMSO control
Description: Immunofluorescence After appropriate treatments in vitro, cells were placed on glass slides coated with poly-L-lysine followed by 15 minutes incubation in a cell culture incubator. Cells were fixed with 4% paraformaldehyde for 30 minutes, blocked with BSA 100 μg/mL for 1 h at room temperature and incubated with a primary antibody (anti-CD38 antibody (1:100)) overnight at 4° C. The incubation with the anti-mouse secondary antibody, labelled with Alexa Fluor 488, was performed in darkness for 1 h at room temperature. After three washes for 5 min in PBS, nuclei were stained with DAPI (Sigma) 1:1000 in PBS for 5 min at room temperature. Finally, cells were washed three times for 10 min in PBS and slides were then mounted using VECTASHIELD Mounting Medium (Vector Laboratories, Burlingame, CA). Fluorescent images were acquired with a LEICA SP5 DMI-6000B confocal microscope (Leica, Wetzlar, Germany) with a 63.0× lens zoomed in 6×.

Cn1c(CCCCCCC(=O)NO)nc2cc(N(CCCl)CCCl)ccc21 [EDO-S101, 7-(5-(bis(2-chloroethyl)amino)-1-methyl-1H-benzo[d]imidazol-2-yl)-N-hydroxyheptanamide]
CD38 histone H3 acetylation levels [1]: elevated | CD38 expression, western blot (CD38 [2]; MM1.S, JJN3, RPMI-8226, 1 and 2.5 μM): increased | increase in CD38 by Western blot and RT-qPCR (CD38 [2]; MOLP-8 cells): not observed | percentage of dead myeloma cells, NK-cell direct cytotoxicity (no daratumumab) [3]: significantly enhances | percentage of dead myeloma cells, NK-cell direct cytotoxicity (no daratumumab) ([3]; listed as tinostamustine): significantly increased | daratumumab mediated CDC (MOLP-8 cells): enhanced | expression of MICA at the mRNA level (MICA mRNA): increased | CD38 expression, immunofluorescence (CD38 [4]): increased
